Assay results taken from PMC9102066, “Cloning and Functional Characterization of Dog OCT1 and OCT2: Another Step in Exploring Species Differences in Organic Cation Transporters” (International Journal of Molecular Sciences, 2022).
Structures can show the parent of a compound that is named as a salt. Where two headings read alike, the source gives them in different places.

T1: mouse OCT1 (Mus musculus, UniProt O08966)
T1 construct: expressed in transfected cells; host or cells: HEK293 (Flp-In system)
T1 sequence (O08966 1-556): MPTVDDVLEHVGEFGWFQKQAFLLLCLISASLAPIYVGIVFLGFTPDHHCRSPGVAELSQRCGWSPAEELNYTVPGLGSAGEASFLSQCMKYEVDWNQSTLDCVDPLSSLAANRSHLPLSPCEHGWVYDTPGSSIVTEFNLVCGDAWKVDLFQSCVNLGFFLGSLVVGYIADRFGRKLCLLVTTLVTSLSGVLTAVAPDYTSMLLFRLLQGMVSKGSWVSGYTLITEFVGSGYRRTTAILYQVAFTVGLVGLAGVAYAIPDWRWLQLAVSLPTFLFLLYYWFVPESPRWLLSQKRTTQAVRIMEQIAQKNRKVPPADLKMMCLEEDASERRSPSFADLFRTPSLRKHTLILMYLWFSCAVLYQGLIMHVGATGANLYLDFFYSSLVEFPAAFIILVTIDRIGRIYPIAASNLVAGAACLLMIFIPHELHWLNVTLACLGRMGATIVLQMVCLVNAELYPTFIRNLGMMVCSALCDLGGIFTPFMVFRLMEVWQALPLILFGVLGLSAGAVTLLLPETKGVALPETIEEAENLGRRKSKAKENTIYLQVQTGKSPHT

T2: human OCT2 (Homo sapiens, UniProt O15244)
T2 construct: expressed in transfected cells; host or cells: HEK293 (Flp-In system)
T2 sequence (O15244 1-555): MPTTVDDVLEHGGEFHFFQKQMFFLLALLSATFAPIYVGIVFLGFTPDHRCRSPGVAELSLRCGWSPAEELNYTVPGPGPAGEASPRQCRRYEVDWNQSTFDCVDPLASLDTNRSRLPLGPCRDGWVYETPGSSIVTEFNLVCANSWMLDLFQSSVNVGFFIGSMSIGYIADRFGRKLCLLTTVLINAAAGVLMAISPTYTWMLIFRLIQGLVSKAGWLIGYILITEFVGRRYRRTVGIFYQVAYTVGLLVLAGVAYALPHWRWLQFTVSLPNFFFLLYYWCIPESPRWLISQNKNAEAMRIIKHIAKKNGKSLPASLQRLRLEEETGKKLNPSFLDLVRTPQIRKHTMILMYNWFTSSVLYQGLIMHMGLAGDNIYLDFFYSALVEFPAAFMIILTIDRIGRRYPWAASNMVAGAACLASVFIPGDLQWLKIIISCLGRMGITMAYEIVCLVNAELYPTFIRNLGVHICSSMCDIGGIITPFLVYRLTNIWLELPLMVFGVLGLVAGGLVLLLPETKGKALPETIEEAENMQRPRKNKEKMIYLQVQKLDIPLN

T3: human OCT1 (Homo sapiens, UniProt O15245)
T3 construct: expressed in transfected cells; host or cells: HEK293 (Flp-In system)
T3 sequence (O15245 1-554): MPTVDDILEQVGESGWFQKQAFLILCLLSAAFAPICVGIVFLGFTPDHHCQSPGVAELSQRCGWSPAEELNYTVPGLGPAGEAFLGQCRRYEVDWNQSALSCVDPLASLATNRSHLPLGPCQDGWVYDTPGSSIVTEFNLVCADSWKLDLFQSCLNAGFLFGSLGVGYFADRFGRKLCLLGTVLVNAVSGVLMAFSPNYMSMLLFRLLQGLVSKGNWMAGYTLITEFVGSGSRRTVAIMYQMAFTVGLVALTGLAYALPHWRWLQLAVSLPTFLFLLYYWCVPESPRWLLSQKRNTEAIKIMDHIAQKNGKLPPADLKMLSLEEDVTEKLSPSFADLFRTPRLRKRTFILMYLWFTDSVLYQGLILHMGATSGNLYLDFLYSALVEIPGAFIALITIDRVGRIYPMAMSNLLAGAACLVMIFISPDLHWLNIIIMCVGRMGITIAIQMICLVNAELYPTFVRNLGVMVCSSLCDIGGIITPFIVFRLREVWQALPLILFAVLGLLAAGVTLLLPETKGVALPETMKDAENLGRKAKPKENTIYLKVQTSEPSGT

B1: human OCT1 (Homo sapiens) (protein)
chain: T3 sequence (O15245 1-554)
notes: expressed in transfected cells; host or cells: HEK293 (Flp-In system)

Experiments:
mouse OCT1 = molecular target: T1, mouse OCT1; experiment: Uptake in HEK293 cells stably overexpressing mouse OCT1; type: in vitro ADME; conditions: intrinsic clearance = vmax divided by KM for each experiment
Description: (§1) Cells were passaged twice a week.
(§2) Intracellular substrate concentrations were quantified using LC-MS/MS.

dog OCT2 = experiment: Uptake in HEK293 cells stably overexpressing dog OCT2; type: in vitro ADME; conditions: for vmax ± SEM, dOCT2 / Km at 2 min: OCT2-mediated uptake, HEK293, 2 min; for vmax ± SEM, dOCT2: 37 °C, pH 7.4, control cells subtracted; for Km at 2 min: dog, Michaelis–Menten fit, read-out: KM ± SEM, dOCT2; for CLint ± SEM, dOCT2: intrinsic clearance = vmax divided by KM for each experiment
Description: as §1, §2

human OCT2 = molecular target: T2, human OCT2; experiment: Uptake in HEK293 cells stably overexpressing human OCT2; type: in vitro ADME; conditions: for CLint ± SEM, hOCT2: intrinsic clearance = vmax divided by KM for each experiment
Description: as §1, §2

dog OCT1 = experiment: Uptake in HEK293 cells stably overexpressing dog OCT1; conditions: for vmax ± SEM, dOCT1: OCT1-mediated uptake, HEK293, 2 min, 37 °C, pH 7.4, control cells subtracted; for fold higher transport capacity by dog than mouse OCT1 / fold lower affinity by dog than mouse OCT1: dog OCT1 versus mouse OCT1; for Km at 2 min: dog; for CLint ± SEM, dOCT1: intrinsic clearance = vmax divided by KM for each experiment
Protocol: The total uptake is shown for the overexpressing and control cells (left hand side). OCT1-mediated uptake (right hand side) was calculated by subtracting the uptake of control cells (pcDNA5) from the uptake of OCT1-overexpressing cells. The means and standard errors of the means are shown for at least three independent experiments.
For generation and characterization, see the Supplementary Methods, Figure S7, and [29, 47]. Cells were cultured in Dulbecco’s Modified Eagle’s Medium (DMEM) supplemented with 10% FBS, 100 U/mL penicillin, and 100 µg/mL streptomycin at 37 °C and 5% CO2. Cells were passaged twice a week.
At 48 h prior to the experiment, 6 × 10^5 cells were seeded per well in 12-well plates pre-coated with poly-D-lysine.
Cellular uptake experiments were performed at 37 °C and pH 7.4 using Hanks’ Buffered Salt Solution (HBSS) supplemented with 10 mM HEPES (referred to as HBSS+ in the following). Cells were washed with 1 mL pre-warmed (37 °C) HBSS+ and uptake was initiated by adding 400 µL of pre-warmed HBSS+ containing the substrate. Uptake was allowed for exactly 2 min and stopped by adding 2 mL ice-cold HBSS+. Cells were washed twice with 2 mL ice-cold HBSS+ then lysed with 80% acetonitrile supplemented with internal standard. The intracellularly accumulated substrate concentrations were measured using LC-MS/MS as described in the following and normalized to the amount of total protein in the samples as measured using the bicinchoninic acid assay.
Intracellular substrate concentrations were quantified using LC-MS/MS. […] The pellet was reconstituted with 200 µL 0.1% formic acid and between 5 and 10 µL was injected into the LC-MS/MS system (Table S2).
An API4000 QTRAP tandem mass spectrometer with ESI interface (AB SCIEX, Darmstadt, Germany) coupled to a Shimadzu Nexera X2 UHPLC system with LC 30AD pumps and SiL 30AC autosampler (Shimadzu, Duisburg, Germany) was used for analysis.
Intrinsic clearance CLint was calculated by dividing vmax by KM for each experiment. Kinetic parameters were compared between OCT1 orthologs using an ANOVA followed by Tukey’s honestly significant difference post hoc comparisons in SPSS Statistics version 28 (SPSS Inc., IBM, Chicago, IL, USA).

human OCT1 = molecular target: T3, human OCT1; experiment: Uptake in HEK293 cells stably overexpressing human OCT1; type: in vitro ADME; conditions: for CLint ± SEM, hOCT1: intrinsic clearance = vmax divided by KM for each experiment
Description: as §1, §2

[1] = substrate: CC(Cc1ccc(O)cc1)NCC(O)c1cc(O)cc(O)c1; experiment: cells, lysate or membranes named; conditions: other: OCT1-mediated uptake, HEK293, 2 min, Michaelis–Menten fit; pH 7.4
[2] = substrate: CCCC[N+]1(C)[C@@H]2C[C@@H](OC(=O)[C@H](CO)c3ccccc3)C[C@H]1[C@@H]1O[C@@H]12; experiment: Uptake in HEK293 cells stably overexpressing human OCT1; type: in vitro ADME; conditions: other: OCT1-mediated uptake, HEK293, 2 min, Michaelis–Menten fit; pH 7.4
Protocol: (§3) Cellular uptake experiments were performed at 37 °C and pH 7.4 using Hanks’ Buffered Salt Solution (HBSS) supplemented with 10 mM HEPES (referred to as HBSS+ in the following). Cells were washed with 1 mL pre-warmed (37 °C) HBSS+ and uptake was initiated by adding 400 µL of pre-warmed HBSS+ containing the substrate. Uptake was allowed for exactly 2 min and stopped by adding 2 mL ice-cold HBSS+. Cells were washed twice with 2 mL ice-cold HBSS+ then lysed with 80% acetonitrile supplemented with internal standard. The intracellularly accumulated substrate concentrations were measured using LC-MS/MS as described in the following and normalized to the amount of total protein in the samples as measured using the bicinchoninic acid assay [49].

[3] = substrate: O=C(O[C@H]1C[C@H]2CC[C@@H](C1)[N+]21CCCC1)C(O)(c1ccccc1)c1ccccc1; experiment: as above; type: in vitro ADME; conditions: other: OCT1-mediated uptake, HEK293, 2 min, Michaelis–Menten fit; pH 7.4
Protocol: as §3

[4] = HEK293 cells stably overexpressing dog OCT1, pH 7.4

Molecule | CLint ± SEM, mOCT1 (mouse OCT1) | CLint ± SEM, hOCT2 (human OCT2) | vmax ± SEM, dOCT1 (dog OCT1) | fold higher transport capacity by dog than mouse OCT1 (dog OCT1) [fold] | fold lower affinity by dog than mouse OCT1 (dog OCT1) [fold] | Km at 2 min (dog OCT1; [4]) [µM] | CLint ± SEM, dOCT1 (dog OCT1) | CLint ± SEM, hOCT1 (human OCT1) | Km at 2 min (dog OCT1; pH 7.4) [µM] | vmax ± SEM, dOCT2 (dog OCT2) | CLint ± SEM, dOCT2 (dog OCT2) | also measured
CCCC[N+]1(C)[C@@H]2C[C@@H](OC(=O)[C@H](CO)c3ccccc3)C[C@H]1[C@@H]1O[C@@H]12 (some centres unmarked) [Butylscopolamine, butylscopolamine bromide] | 131 ± 25.6 µL × min^−1 × mg Protein^−1 | 81.6 ± 2.16 µL × min^−1 × mg Protein^−1 | 1383 ± 112 pmol × min^−1 × mg Protein^−1 | 1.8 | 2.9 | 18.7 ± 3.32 | 80.5 ± 12.3 µL × min^−1 × mg Protein^−1 | 84.4 ± 6.76 µL × min^−1 × mg Protein^−1 |  |  |  | fold lower transport by dog OCT2 compared to human OCT2 (dog OCT2; dog OCT2 versus human OCT2): 10 fold; uptake by dog OCT2 cells compared to control cells, in words (dog OCT2; especially at low concentrations, data could not be fitted to the Michaelis–Menten equation): only a slight increase; difference in uptake kinetics between dog and human OCT1, in words (dog OCT1; dog OCT1 versus human OCT1): no significant differences; CLint ± SEM, dOCT1 (dog OCT1; listed as butylscopolamine): 122 µL × min^−1 × mg Protein^−1
CC(Cc1ccc(O)cc1)NCC(O)c1cc(O)cc(O)c1 (centres unmarked) [Fenoterol, Fenoterol hydrochloride] | 88.5 ± 15.5 µL × min^−1 × mg Protein^−1 | 28.0 ± 0.95 µL × min^−1 × mg Protein^−1 |  |  |  |  | 80.7 ± 7.76 µL × min^−1 × mg Protein^−1 | 88.3 ± 3.85 µL × min^−1 × mg Protein^−1 | 16.8 ± 1.09 |  |  | CLint ± SEM, mOCT1 (mouse OCT1; listed as fenoterol): 88.5 µL × min^−1 × mg Protein^−1; fold lower affinity (higher KM) by dog OCT1 than human OCT1 (dog OCT1; dog OCT1 versus human OCT1): 14.3 fold; CLint ± SEM, dOCT1 (dog OCT1; listed as fenoterol): 80.7 µL × min^−1 × mg Protein^−1; fold higher affinity (human OCT1 relative to dog OCT1, as worded in the discussion) (human OCT1; discussion wording, direction not spelled out): 14.3 fold; CLint ± SEM, hOCT1 (human OCT1; listed as fenoterol): 88.3 µL × min^−1 × mg Protein^−1
CN(C)C(=N)N=C(N)N [Metformin, metformin hydrochloride] | 38.7 ± 6.23 µL × min^−1 × mg Protein^−1 | 39.9 ± 5.27 µL × min^−1 × mg Protein^−1 | 11,373 ± 714 pmol × min^−1 × mg Protein^−1 |  |  | 204 ± 41.8 | 63.1 ± 12.0 µL × min^−1 × mg Protein^−1 |  |  | 21,578 ± 606 pmol × min^−1 × mg Protein^−1 | 59.2 ± 2.76 µL × min^−1 × mg Protein^−1 | Km at 2 min (dog OCT2; HEK293 cells stably overexpressing dog OCT2, pH 7.4): 365 ± 11.5 µM; vmax ± SEM, hOCT2 (human OCT2; OCT2-mediated uptake, HEK293, 2 min, 37 °C, pH 7.4, control cells subtracted): 29,650 ± 1457 pmol × min^−1 × mg Protein^−1; Km at 2 min (human OCT2; human, HEK293 cells stably overexpressing human OCT2, pH 7.4, OCT2-mediated uptake, HEK293, 2 min, Michaelis–Menten fit, read-out: KM ± SEM, hOCT2): 766 ± 95.4 µM; vmax ± SEM, hOCT1 (human OCT1; OCT1-mediated uptake, HEK293, 2 min, 37 °C, pH 7.4, control cells subtracted): 10,465 ± 1306 pmol × min^−1 × mg Protein^−1; Km at 2 min (human OCT1; human, HEK293 cells stably overexpressing human OCT1, pH 7.4, OCT1-mediated uptake, HEK293, 2 min, Michaelis–Menten fit, read-out: KM ± SEM, hOCT1): 1090 ± 297 µM
O=C(O[C@H]1C[C@H]2CC[C@@H](C1)[N+]21CCCC1)C(O)(c1ccccc1)c1ccccc1 [Trospium, trospium chloride] | 180 ± 37.5 µL × min^−1 × mg Protein^−1 | 278 ± 40.5 µL × min^−1 × mg Protein^−1 | 835 ± 64.9 pmol × min^−1 × mg Protein^−1 | 3.4 | 4.4 |  | 146 ± 10.3 µL × min^−1 × mg Protein^−1 | 117 ± 12.7 µL × min^−1 × mg Protein^−1 | 5.72 ± 0.3 | 224 ± 14.6 pmol × min^−1 × mg Protein^−1 | 106 ± 8.78 µL × min^−1 × mg Protein^−1 | fold lower affinity by dog OCT2 than human OCT2 (dog OCT2; dog OCT2 versus human OCT2): 5.7 fold; Km at 2 min (dog OCT2; pH 7.4): 2.18 ± 0.27 µM
B1 |  |  |  |  |  |  |  |  |  |  |  | Km [1]: 1.19 ± 0.09 µM; Km [2]: 15.0 ± 1.67 µM; Vmax [2]: 0.00125 µmol/min/mg; Vmax/Km [2]: 84.4 µL/min/mg; Km [3]: 13.3 ± 1.58 µM; Vmax [3]: 0.0015 µmol/min/mg; Vmax/Km [3]: 117 µL/min/mg
